In the METLIN SMRT retention time set (Domingo-Almenara et al. 2019) one finds RP-LC retention time data, which are given here for 25 compounds.

A short description of the data set: gradient 5% acetonitrile 3 min, to 50% in 2 min, to 85% in 15 min, held 3 min, 100 µL/min. Particulars: column: Zorbax Extend-C18 2.1 x 50 mm; eluents: water / acetonitrile, 0.1% formic acid. In outline: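 Retention times come from adduct peaks that were picked computationally and then checked by hand. The standards, pure and pooled in mixtures of ~100 molecules, were run on a Zorbax Extend-C18 column (2.1 × 50 mm, 1.8 μm) at 100 μL/min with water and acetonitrile, each with 0.1% formic acid. Detection was by quadrupole time-of-flight mass spectrometry in positive and negative ionization mode, with a dead volume of 40 μL and a dwell volume of 900 μL.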
With `CC(C)Cn1c(=O)c(C(=O)NCCc2ccccn2)nc2cccnc21`, the RP-LC retention time came to 604 s.

As for `O=C(NCCc1ccccc1)Nc1cnn(-c2ncc(N3CCCC3)cn2)c1`, the RP-LC retention time amounted to 778 s. Regarding `Cc1[nH]c(C(=O)N2CCC(CC(=O)NCc3cccnc3)CC2)c(C)c1C(=O)OC(C)C`, the RP-LC retention time turned out to be 597 s. Compound `CC(C)c1ccc(-c2cc3c4nn(CC(=O)N5CCCC5)c(=O)n4ccn3n2)cc1` returned an RP-LC retention time of 916 s. Regarding `COc1ccc(S(=O)(=O)N2CCC(c3noc(-c4ccc(C)cc4)n3)CC2)cc1`, the RP-LC retention time turned out to be 1150 s. Take `CCOC(=O)c1c(C)c(C(=O)CN(CC2CCCO2)C(=O)c2ccc(Cl)cc2)c(C)n1C` (stereo not given): the RP-LC retention time came to 987 s. With `CN1CCN(c2ncc(C(=O)O)c(-c3ccccc3)n2)CC1`, the RP-LC retention time amounted to 562 s. Take `Cn1c(CCNC(=O)c2ccccc2F)nc2cccnc21`: the RP-LC retention time stood at 591 s. To `Cc1ccc2c(c1)N(C(=O)CCC(=O)NCCCN1CCN(C3CCCCC3)CC1)CC(C)O2` (stereo not given) belongs 603 s. The same measure for `O=C(Nc1cccc(F)c1)c1cc(C2CC2)on1`: 956 s; for `CCOc1ccc(NC(=O)c2cn(-c3cc(N4CCCC(C)C4)ncn3)cn2)cc1` (stereo not given): 1130 s. To `O=C(CCc1cccc2[nH]ccc12)NCc1ccc(N2CCOCC2)cc1` belongs 714 s; to `Cc1noc(C)c1S(=O)(=O)N1CCc2nn(Cc3ccccc3)c(=O)n2CC1`, 776 s; to `CCc1nn(CC)c(=O)c2cc(S(=O)(=O)NCc3ccc(Cl)cc3)cn12`, 989 s. `O=C(Nc1cccc(C(F)(F)F)c1)N1CCC(N2C[C@H]3C[C@H](C2)[C@H]2CCCC(=O)N2C3)CC1` came in with an RP-LC retention time of 653 s. The same measure for `O=C(Nc1c(-c2ccc(F)cc2)nc2ccccn12)c1ccc(Cl)cc1Cl`: 739 s; for `Cc1nnc(C2CCCCCN2C(=O)CCc2c(C)nn(C)c2C)o1` (stereo not given): 608 s. To `OC[C@H]1O[C@@H](n2cnc3c(NC4CCCC4)nc(Cl)nc32)[C@@H](O)C1O` (stereo not given in full) belongs 713 s; to `Cc1cccc(-c2ccc(N3CCCC(C(=O)NC4CCCC4)C3)nn2)c1` (stereo not given), 708 s; to `CNCc1ccc(-c2ccccc2Cl)o1`, 642 s. To `Cc1nccn1C1CN(C(=O)C(C)Oc2ccccc2)C1` (stereo not given) belongs 599 s; to `CCc1nnc(-c2ccc3ccn(CC(=O)Nc4cc(C)ccn4)c3c2)o1`, 705 s; to `COC(=O)C1=C(CN2CCOCC2)NC(=O)NC1c1ccc(OC)c(OC)c1` (stereo not given), 571 s.

With `Cc1noc(CNC(=O)C2CCN(C(=O)Cn3c(=O)oc4ccccc43)CC2)n1`, the RP-LC retention time amounted to 608 s. As for `CCC1CCCCN1CCCNC(=O)c1ccnc(-c2cccs2)c1` (stereo not given), the RP-LC retention time came to 627 s.
